Experimental data reported in article PMC10892419, “UHPLC-MS/MS Assay for Quantification of Legubicin, a Novel Doxorubicin-Based Legumain-Activated Prodrug, and Its Application to Pharmacokinetic and Tissue Distribution Studies” (Molecules, 2024).

Experiments:
[1] = Storage stability of analytes in mouse liver homogenate (method validation)
Experimental: (§5) Tumor-bearing mouse tumor/individual tissue samples were homogenized by adding PBS at a ratio of 1:5 (e.g., 1 g of tumor sample to 5 mL of PBS) to make a tumor/tissue homogenate. A quantity of 60 µL of homogenate was taken as a tumor/tissue sample and processed in the same manner as the mouse plasma sample, with the exception of 240 µL of IS working solution used for protein precipitation.
(§6) By investigating low- and high-concentration stability QCs in six replicates at different storage conditions, autosampler, short-term (bench-top), freeze and thaw, and long-term stability evaluations were conducted.

[2] = Tissue-distribution study after i.v. legubicin or doxorubicin; conditions: HT1080 tumor-bearing mice
Experimental: (§1) The mixture was vortexed for 3 min, and then centrifuged at 22,000× g at 4 °C for 10 min. A final analysis was conducted by injecting 5 µL supernatant into a UHPLC-MS/MS system. Mouse plasma samples were treated in the same way as the rat plasma samples, except for protein precipitation, with 200 µL of 5 pmol/mL IS working solution and injection of 2 µL of supernatant for analysis.
Each legubicin administration group corresponded to a sampling time-point (4, 16, 32, 48, 96, 168, and 240 h after administration). […] Blood samples and tumor, heart, and kidney tissues were collected at the sampling time points (4, 16, 32, 48, 96, 168, and 240 h after dosing). In addition, liver, spleen, lung, stomach, small intestine, gonads, brain, skeletal muscle, and skin were also collected at 4, 32, 96, and 240 h post-dose time points in the legubicin administration group. All whole-blood samples were processed according to the same processing steps, described above, for rat whole-blood samples.
(§2) The analysis software (Version 1.5.2, AB Sciex, Vaughan, ON, Canada) was applied to data acquisition and quantification. Pharmacokinetic parameters were calculated with WinNonlin Phoenix (v6.4, Pharsight, Mountain View, CA, USA) with the noncompartmental method, and were presented as mean ± SD (%CV). The “Best fit” strategy in the WinNonlin Phoenix was used for the calculation of elimination half-life and the selection of the elimination phase. Graphs were plotted by GraphPad Software (GraphPad Prism 8.0.2; GraphPad Software, Inc., La Jolla, CA, USA).

[3] = Storage stability of analytes in rat plasma (method validation); conditions: for Auto-Sampler Stability at 2–8 °C (72 h), Bias / Auto-Sampler Stability at 2–8 °C (72 h), Measured Concentration: processed rat plasma; for Auto-Sampler Stability at 2–8 °C (72 h), Bias / Short-Term Stability at Room Temperature (4 h), Bias / Freeze and Thaw Stability at −80 °C/Room Temperature (3 Cycles), Bias / Long-Term Stability at −80 °C (70 days), Bias: n = 6; for Auto-Sampler Stability at 2–8 °C (72 h), Measured Concentration / Freeze and Thaw Stability at −80 °C/Room Temperature (3 Cycles), Measured Concentration / Long-Term Stability at −80 °C (70 days), Measured Concentration / Short-Term Stability at Room Temperature (4 h), Measured Concentration: n = 6, mean ± SD; for Short-Term Stability at Room Temperature (4 h), Bias / Freeze and Thaw Stability at −80 °C/Room Temperature (3 Cycles), Bias / Long-Term Stability at −80 °C (70 days), Bias / Freeze and Thaw Stability at −80 °C/Room Temperature (3 Cycles), Measured Concentration / Long-Term Stability at −80 °C (70 days), Measured Concentration / Short-Term Stability at Room Temperature (4 h), Measured Concentration: rat plasma; for Short-Term Stability at Room Temperature (4 h), Bias: bias from nominal
Experimental: as §6

[4] = Single-dose pharmacokinetic study of legubicin, i.v.; conditions: free metabolite in plasma; for AUClast / Cmax: n = 3, mean ± SD; for Tmax: n = 3, median [min, max]
Experimental: The pharmacokinetic parameters are outlined in Table 5. […] A power-function model was used to fit the relationship between exposure level (Cmax, AUClast, and AUCINF_obs) parameters and dose, and the power exponent (parameter β) and its 90% confidence interval were obtained (see Table S5).
as §1
(§3) (1) For the hydrolysis process, an aliquot of 25 µL of rat/mouse plasma was transferred into an Eppendorf tube, and then 50 µL of enzyme digestion buffer and 25 µL of legumain enzyme were placed into the tube. The mixture was vortexed for 1 min, and then incubated in a water bath for 24 h at 37 °C for enzymatic hydrolysis. (2) For the protein precipitation process, 1000 µL of IS working solution (5 pmol/mL and 50 pmol/mL for rat and mouse plasmas, respectively) was added to the enzymatic-hydrolysis solution. Then, the sample was vortexed for 3 min and centrifuged at 22,000× g for 10 min at 4 °C. Analyses were performed on the 3 µL aliquot of the solution used in the UHPLC-MS/MS system.
(§4) Twenty-four rats, inclusive of both sexes, were randomly distributed into four groups. Groups 1, 2, and 3 were single-dose groups, among which the subjects received legubicin via tail intravenous injection (a dose of 1.5, 5, or 15 mg/kg; i.e., 1.36, 4.52, or 13.6 µmol/kg). The fourth group was utilized for a multi-dose study at 5 mg/kg (once-weekly for 4 consecutive weeks). Blood samples of approximately 150 µL were taken from the jugular vein at 0 h (pre-dosing) and at 0.167 h (10 min), 0.5 h, 1 h, 2 h, 4 h, 8 h, 24 h, 48 h, and 72 h post-dosing in the single-dose groups. Samples were also obtained on days 1 and 22 for the multiple-dose group in the same way as for the single-dose groups. However, on days 8 and 15, samples were taken only before and 10 min after administration. The K2EDTA quantities containing blood samples were centrifuged (4 °C, 4000 rpm, 10 min) to collect plasma samples, which were separated into EP tubes and kept at −80 °C until further assay.
as §2

[5] = Storage stability of analytes in mouse tumor homogenate (method validation)
Experimental: as §5, §6

[6] = Multiple-dose pharmacokinetic study of legubicin, weekly i.v. for 4 weeks; conditions: free metabolite in plasma, weekly i.v. legubicin 5 mg/kg; for Tmax: median [min, max]; for AUClast / Cmax: n = 3
Experimental: as §1, §3, §4, §2

[7] = i.v. 9.05 µmol/kg of the labelled drug, n = 6, UHPLC-MS/MS
[8] = high QC (Leu-DOX 4000, DOX 1200 pmol/mL, conjugate 80 nmol/mL)
[9] = high QC (nominal Leu-DOX 4000, DOX 1200 pmol/mL)
[10] = low QC (Leu-DOX 10, DOX 3 pmol/mL, conjugate 0.2 nmol/mL)
[11] = low QC (nominal Leu-DOX 10, DOX 3 pmol/mL)
[12] = female SD rats, single i.v. legubicin 5 mg/kg
[13] = female SD rats, single i.v. legubicin 15 mg/kg
[14] = male SD rats, single i.v. legubicin 5 mg/kg
[15] = male SD rats, single i.v. legubicin 15 mg/kg
[16] = female SD rats, multiple dose (day 22)
[17] = female SD rats, single dose (day 1)
[18] = male SD rats, multiple dose (day 22)
[19] = male SD rats, single dose (day 1)

Freeze and thaw stability at -80 °C/ room temperature, Measured concentration ([1]; mouse liver homogenate, 3 cycles, low QC (nominal Leu-DOX 27, DOX 10 pmol/mL), n = 6, mean ± SD): 11.04 ± 0.68 pmol/mL
Short term stability at room temperature (6 h), Bias ([1]; mouse liver homogenate, low QC (Leu-DOX 27, DOX 10 pmol/mL), n = 6): 0.8%
Short term stability at room temperature (6 h), Measured concentration ([1]; mouse liver homogenate, low QC (nominal Leu-DOX 27, DOX 10 pmol/mL), n = 6, mean ± SD): 10.08 ± 0.52 pmol/mL
Auto-sampler stability at 2-8 °C, Measured concentration ([1]; processed mouse liver homogenate, 48h, low QC (nominal Leu-DOX 27, DOX 10 pmol/mL), n = 6, mean ± SD): 11.06 ± 0.81 pmol/mL
AUClast of doxorubicin in heart [2, 7]: 29.0 nmol·h/g
AUClast of doxorubicin in kidney [2, 7]: 83.5 nmol·h/g
AUClast of doxorubicin in plasma [2, 7]: 1.07 nmol·h/g
AUClast of doxorubicin in tumor [2, 7]: 63.1 nmol·h/g
order of exposure (Dox distribution) ([2]; after i.v. doxorubicin 9.05 µmol/kg, n = 6): kidney > tumor > heart > plasma
time of maximum concentration (Cmax) in all tissues ([2]; after i.v. doxorubicin 9.05 µmol/kg, initial sampling point): 4 h
Auto-Sampler Stability at 2–8 °C (72 h), Bias [3, 8]: 1.0%
Auto-Sampler Stability at 2–8 °C (72 h), Measured Concentration [3, 9]: 1211.67 ± 104.58 nM
Auto-Sampler Stability at 2–8 °C (72 h), Bias [3, 10]: 4.4%
Auto-Sampler Stability at 2–8 °C (72 h), Measured Concentration [3, 11]: 3.13 ± 0.25 nM
Short-Term Stability at Room Temperature (4 h), Bias [3, 8]: 3.2%
Freeze and Thaw Stability at −80 °C/Room Temperature (3 Cycles), Bias [3, 8]: 1.8%
Long-Term Stability at −80 °C (70 days), Bias [3, 8]: −0.8%
Freeze and Thaw Stability at −80 °C/Room Temperature (3 Cycles), Measured Concentration [3, 9]: 1221.67 ± 97.45 pmol/mL
Long-Term Stability at −80 °C (70 days), Measured Concentration [3, 9]: 1190.00 ± 40.50 pmol/mL
Short-Term Stability at Room Temperature (4 h), Measured Concentration [3, 9]: 1238.33 ± 100.48 pmol/mL
Short-Term Stability at Room Temperature (4 h), Bias [3, 10]: 1.2%
Freeze and Thaw Stability at −80 °C/Room Temperature (3 Cycles), Bias [3, 10]: 0.4%
Long-Term Stability at −80 °C (70 days), Bias [3, 10]: −0.6%
Freeze and Thaw Stability at −80 °C/Room Temperature (3 Cycles), Measured Concentration [3, 11]: 3.01 ± 0.15 pmol/mL
Long-Term Stability at −80 °C (70 days), Measured Concentration [3, 11]: 2.98 ± 0.29 pmol/mL
Short-Term Stability at Room Temperature (4 h), Measured Concentration ([3]; low QC (nominal Leu-DOX 10, DOX 3 pmol/mL), UHPLC-MS/MS): 3.04 ± 0.18 pmol/mL
AUClast [4, 12]: 0.1 ± 0.00538 µM·h
Cmax [4, 12]: 3.11 ± 0.615 nM
Tmax [4, 12]: 0.167 [0.167, 0.167] h
AUClast [4, 13]: 0.486 ± 0.0464 µM·h
Cmax [4, 13]: 20.5 ± 5.06 nM
Tmax [4, 13]: 0.167 [0.167, 0.167] h
AUClast [4, 14]: 0.173 ± 0.0243 µM·h
Cmax [4, 14]: 6.65 ± 1.30 nM
Tmax [4, 14]: 0.167 [0.167, 0.167] h
AUClast [4, 15]: 0.789 ± 0.0997 µM·h
Cmax [4, 15]: 44.2 ± 4.65 nM
Tmax [4, 15]: 0.167 [0.167, 0.167] h
Freeze and thaw stability at -80 °C/ room temperature, Bias ([5]; mouse tumor homogenate, 3 cycles, low QC (Leu-DOX 27, DOX 9 pmol/mL), n = 6): -1.2%
Freeze and thaw stability at -80 °C/ room temperature, Measured concentration ([5]; mouse tumor homogenate, 3 cycles, low QC (nominal Leu-DOX 27, DOX 9 pmol/mL), n = 6, mean ± SD): 8.89 ± 0.66 pmol/mL
Short term stability at room temperature (6 h), Bias ([5]; mouse tumor homogenate, low QC (Leu-DOX 27, DOX 9 pmol/mL), n = 6): 5.7%
Short term stability at room temperature (6 h), Measured concentration ([5]; mouse tumor homogenate, low QC (nominal Leu-DOX 27, DOX 9 pmol/mL), n = 6, mean ± SD): 9.51 ± 0.67 pmol/mL
Auto-sampler stability at 2-8 °C, Bias ([5]; processed mouse tumor homogenate, 48h, low QC (Leu-DOX 27, DOX 9 pmol/mL), n = 6): -5.1%
Auto-sampler stability at 2-8 °C, Measured concentration ([5]; processed mouse tumor homogenate, 48h, low QC (nominal Leu-DOX 27, DOX 9 pmol/mL), n = 6, mean ± SD): 8.54 ± 0.89 pmol/mL
Tmax [6, 16]: 0.167 [0.167, 0.167] h
AUClast [6, 16]: 0.174 ± 0.0367 µM·h
Cmax [6, 16]: 4.70 ± 0.534 nM
Tmax [6, 17]: 0.167 [0.167, 0.167] h
AUClast [6, 17]: 0.0945 ± 0.0447 µM·h
Cmax [6, 17]: 3.10 ± 0.367 nM
Tmax [6, 18]: 0.167 [0.167, 0.167] h
AUClast [6, 18]: 0.207 ± 0.0112 µM·h
Cmax [6, 18]: 8.58 ± 0.616 nM
Tmax [6, 19]: 0.167 [0.167, 0.167] h
AUClast [6, 19]: 0.123 ± 0.0441 µM·h
Cmax [6, 19]: 6.01 ± 0.430 nM
SMILES: COc1cccc2c1C(=O)c1c(O)c3c(c(O)c1C2=O)C[C@@](O)(C(=O)CO)C[C@@H]3O[C@H]1C[C@H](N)[C@H](O)[C@H](C)O1 [DOX, Doxorubicin]
brain penetration of the metabolite ([2]; after i.v. legubicin 9.05 µmol/kg): neither the metabolite doxorubicin nor free Leu-Dox permeated the brain
tissue concentration rank order of the metabolite ([2]; after i.v. legubicin 9.05 µmol/kg, n = 6): liver having the highest levels, followed by the tumor, skin, lung, gonads, spleen, kidney, stomach, small intestine, skeletal muscle, heart, and plasma
